# Measured values taken from US11591596B2, “Compounds and compositions including phosphorothioated oligodeoxynucleotide, and methods of use thereof” (City of Hope, priority 2015, dated 2023).
# Columns and labels:
# [1] = system: Mouse CML leukemia stem cells (LSC, Lin-Sca-1+c-kit+Fit3-CD150+CD48-); assay: Apoptosis and cell growth of mouse CML leukemia stem cells; format: cell-based; conditions: combined with NIL, compared with CpG-SCR+NIL
# Description: Mouse CML leukemia stem cells (LSC, Lin-Sca-1+c-kit+Fit3-CD150+CD48-) were sorted and treated with CpG-anti-miR-126 inhibitor or CpG-SCR (500 nM) for 48 hours, then furthered treated with miR126 inhibitor+NIL or SCR+NIL for 72 hours, then apoptosis and cell growth were measured.
# [2] = system: long term hematopoietic stem cells (LTHSC, Lin-Sca-1+c-kit+Fit3-CD150+CD48−) from normal and CML mouse; assay: Cell cycling of murine LTHSC by EDU/DAPi staining; format: cell-based; conditions: 500 nM, compared with the CpG-Scr
# Description: Normal (NL) and CML murine LTHSC (Lin-Sca-1+Kit+Fit3− CD150+CD48− cells) were sorted and then treated with 500 nm CpG-miR126 inhibitor or CpG-SCR for 72 hours, then cell cycling was analyzed by EDU/DAPi staining.
# [3] = system: miR126; assay: miRNA126 expression in NL/CB, AML and CML CD34+ cells by Q-RT-PCR; format: cell-based, human; conditions: 500 nM, 24 hours; primary patients' AML and CML CD34+ cells
# Description: FIG. 5 is a bar graph showing the expression of miRNA 126 in NL/CB, AML and CML CD34+ cells. Normal, cord blood, AML and CML CD34+ cells were cultured with CpG-scramble RNA (500 nM) and CpG-miR 126 inhibitor-Cy3 (500 nM) for 24 hours. miR126 and RNU44 (control) expression was analyzed by q-RT-PCR. The miR126 expression levels were normalized to RNU44 and calculated by using the comparative 2^−ΔΔct method.
# Normal, cord blood, AML and CML CD34+ cells were cultured with CpG-scramble RNA (500 nM) and CpG-anti-miR126 inhibitor-Cy3 (500 nM) for 24 hours, and then miR126 and RNU44 (ctrl) expression in these cells were analyzed by Q-RT-PCR (FIG. 5). The miR126 expression levels were normalized to RNU44 and calculated by using the comparative 2^−ΔΔCt method.
# [4] = system: miR126; assay: miRNA 126 expression in AML and CML cell lines by Q-RT-PCR; format: cell-based, human; conditions: 500 nM, 24 hours
# Description: FIGS. 4A-4G are bar graphs showing miRNA 126 expression in AML and CML cell lines. Cells were cultured with miR126-inhibitor-Cy3 (Cy3-200 nM0, human CD45 (Ab-200 nM) or Transferrin (TF-200 nM)-conjugated NP containing antagomiR-126-Cy3, CpG-miR126 inhibitor-Cy3 (CpG-Cy3-200 nM and 500 nM) for 24 hours, then miR126 and RNU44 (control) expression in these cells was analyzed by q-RT PCR. The miR126 expression levels were normalized to RNU44 and calculated by using the comparative 2^−ΔΔct method. FIG. 4A is a bar graph showing miRNA 126 expression in the K562 CML cell line. FIG. 4B is a bar graph showing miRNA 126 expression in the KG1A AML cell line. FIG. 4C is a bar graph showing miRNA 126 expression in the MV4-11 AML cell line. FIG. 4D is a bar graph showing the miRNA 126 expression in the Molm13 AML cell line. FIG. 4E is a bar graph showing the miRNA 126 expression in the NB4 AML cell line. […]
# miRNA 126 expression in AML and CML lines was evaluated. CML (K562) (FIG. 4A) and AML cell lines (KG1A, MV4-11, Molm13, NB4, OCI and HL60) (FIGS. 4B-4G) were cultured with anti-miR126 inhibitor-Cy3 (Cy3 ctrl, 200 nM), human CD45 (Ab-NP, 200 nM) or Transferrin (TF-NP, 200 nM)-conjugated NP containing anti-miR-126-Cy3, or CpG-anti-miR126 inhibitor-Cy3 (CpG-200 nM and 500 nM) for 24 hours, then miR126 and RNU44 (control) expression in these cells were analyzed by Q-RT-PCR.
# [5] = system: CML (K562) and AML cell lines (KG1A, MV4-11, Molm13, NB4, OCI and HL60); assay: Uptake in AML and CML cell lines, Cy3 by flow cytometry; format: cell-based, human; conditions: 4 hours
# Description: FIGS. 3A-3G are flow cytometry histograms showing results of CpG-anti-miR-126 uptake in AML and CML cell lines. Cells were cultured with miR126-inhibitor-Cy3 (Cy3-200 nM0, human CD45 (Ab-200 nM) or Transferrin (TF-200 nM)-conjugated nanoparticles (NP) containing antagomiR-126-Cy3, CpG-miR126 inhibitor-Cy3 (CpG-Cy3-200 nM and 500 nM) for 4 hours, then uptake was analyzed by measuring Cy3 expression in these cells by flow cytometry. FIG. 3A is a histogram showing uptake in K562 cells. FIG. 3B is a histogram showing uptake in KG1A AML cells. FIG. 3C is a histogram showing uptake in MV4-11 AML cells. FIG. 3D is a histogram showing uptake in Molm13 AML cells. FIG. 3E is a histogram showing uptake in NB4 AML cells. FIG. 3F is a histogram showing uptake in OCI AML cells. FIG. 3G is a histogram showing uptake in HL60 AML cells.
# CML (K562) (FIG. 3A) and AML cell lines (KG1A, MV4-11, Molm13, NB4, OCI and HL60) (FIGS. 3B-3G) were cultured with anti-miR126 inhibitor-Cy3 (Cy3-200 nM) alone, human CD45 (Ab-200 nM) or Transferrin (TF-200 nM)-conjugated nanoparticles (NP) containing anti-miR126-Cy3 or unformulated CpG-anti-miR126 inhibitor—Cy3 in two concentrations (200 nM and 500 nM) for 4 hours, the uptake was analyzed by measuring Cy3 expression in these cells by flow cytometry.
substance,measurement,setting,value
5′ G*G*T GCA TCG ATG CAGG*G*G* G*G (SEQ ID NO: 1) xxxxx mCmGmC mAmUmU mAmUmU mAmCmU mCmAmC mGmGmU mAmCmG mA (SEQ ID NO: 17) 3′ [CpG-anti-miR126],apoptosis of LSC,[1],significantly increased apoptosis
same,cell growth of LSC,[1],significant reduction of cell growth
same,cell-cycle entry,[2],increased cell-cycle entry
same,reduction of miR126 expression,[3],60%-90%
same,downregulation of miRNA126,[4]; all tested human AML and CML cell lines,most effective downregulation
same,reduction of target miRNA expression,"[4]; HL60, K562, MV4-11, MOLM13 and OCI cells",more than 50%
same,internalization (Cy3 uptake),"[5]; 200 nM and 500 nM, no transfection reagents",quickly and dose-dependently internalized
same,level of internalization compared with other oligonucleotides including NP-formulated anti-miR126 inhibitor,[5]; absence of any transfection reagents,exceeded that of all other oligonucleotides
